In article PMC6753678, “Fueling Open Innovation for Malaria Transmission-Blocking Drugs: Hundreds of Molecules Targeting Early Parasite Mosquito Stages” (Frontiers in Microbiology, 2019):
Read-outs that look alike come from different tables or passages of the source.

Key:
[1] = test system: P. falciparum late stage (stages IV-V) gametocytes; set-up: method as in Almela et al 2016; settings: ref Almela et al 2016, read-out: Pf GCT ATP IC50, cited from earlier work
[2] = test system: HepG2 cells; settings: cited from earlier work; for HepG2 cytoxicity (Pf GCT ATP screen) / HepG2 cytoxicity: ref Almela et al 2016; for HepG2 cytoxicity (Pf FGAA screen): ref Miguel-Blanco et al 2017
[3] = test system: 3D7-strain P. falciparum asexual parasites; assay: P. falciparum asexual growth inhibition assay (Pf GIA); assay type: cell-based, Plasmodium falciparum; settings: dose response confirmation; read-out: Pf asexual growth inhibition assays IC50
In short: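 3D7 parasites at 0.25% parasitemia, 2% hematocrit were exposed to compounds in dose response for 72 h at 37°C under 5% CO2, 5% O2. Viability read as parasite LDH activity (nitro blue tetrazolium, A650) after freeze-thaw; inhibition scaled to chloroquine (50 μM) and DMSO controls, mean of three biological replicates.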

[4] = test system: P. berghei ookinete development; settings: for % inhibition, Replicate A / % inhibition, Replicate B: primary screen at 1 μM; for Is compound selective in assay? Pb ODA active?: 1: YES, 0: NO
[5] = test system: HepG2 cells; assay: HepG2 cytotoxicity assay; settings: for IC50: read-out: HepG2 cytotoxicity assay IC50, dose response confirmation
In short: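 Cells at 2,500 per well in MEM with 10% fetal bovine serum and 1% NEAA were exposed to test compounds for 48 h at 37°C, 5% CO2. Viability was read by fluorescence, with percent inhibition calculated against 50 μM doxorubicin (positive) and DMSO (negative) controls.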

[6] = test system: P. falciparum female gametocytes; assay: P. falciparum female gametogenesis assay (Pf FGAA); settings: 1: YES; 0: NO
[7] = test system: P. falciparum female gametocytes; set-up: method as in Miguel-Blanco et al 2017; settings: ref Miguel-Blanco et al 2017; read-out: Pf FGAA IC50; cited from earlier work
[8] = read-out: Pb ODA IC50, this manuscript
[9] = read-out: Pb Ookinete development assay IC50, dose response confirmation
[10] = P. falciparum late stage gametocyte ATP assay
[11] = HepG2 data listed with Pf GCT ATP screen
[12] = P. falciparum late stage gametocyte ATP assay, TCAMS screen
[13] = HepG2 values of the three screens unified
[14] = reported with the Pf GCT ATP screen
[15] = HepG2 cytotoxicity unified across screens, >25 set to 25.00

SMILES | IC50 [3] [nM] | % inhibition, Replicate A [4] [%] | % inhibition, Replicate B [4] [%] | IC50 [4, 8] [nM] | IC50 [4, 9] [nM] | HepG2 cytoxicity (Pf FGAA screen) ([2]; HepG2) [µM] | HepG2 cytoxicity (Pb ODA, this manuscript) [5] [µM] | Unified cytotox [5, 13] [µM] | IC50 [5] [nM] | Is compound selective in assay? Pf FGAA active? [6] | Is compound selective in assay? Pb ODA active? [4] | IC50 [7] [nM] | other results
c1ccc(CSC2=NNC(c3ccccn3)S2)cc1 (centres unmarked) [TCMDC-123769] |  |  |  |  |  |  |  |  |  |  |  |  | IC50 ([1]; TCAMS library screen): 7980 nM; HepG2 cytoxicity (Pf GCT ATP screen) ([2]; HepG2 value reported with Pf GCT ATP screen): >25 µM
Clc1ccc(Nc2nc(-c3ccccn3)cs2)nc1 [TCMDC-123885] | 1600 | -3.14 | 71.58 | 3700 | 3700 |  |  |  |  |  |  |  | IC50 [1]: 670 nM; HepG2 cytoxicity (Pf GCT ATP screen) ([2]; HepG2): 20.8 µM
O=C(Nc1ccc2c(c1)CCCN2S(=O)(=O)c1cccs1)c1cc([N+](=O)[O-])ccc1Cl [TCMDC-125153] |  |  |  |  |  |  |  |  |  |  |  |  | IC50 [1, 10]: 2660 nM; HepG2 cytoxicity [2, 11]: >25 µM
Cc1cc(NCCCCCCNc2cc(C)nc3c(C)cccc23)c2cccc(C)c2n1.Cl [TCMDC-125702] |  |  |  |  |  |  |  |  |  |  |  |  | IC50 [1, 10]: 3320 nM; HepG2 cytoxicity [2, 11]: >25 µM
Br.Cc1ccnc(Nc2nc(-c3ccccn3)cs2)c1 [TCMDC-125769] |  |  |  |  |  |  |  |  |  |  |  |  | IC50 [1, 10]: 43.3 nM
CCN(CC)/C(=N/C(=N)Nc1ccc(Cl)c(Cl)c1)NCCCCCCN/C(=N\C(=N)Nc1ccc(Cl)c(Cl)c1)N(CC)CC [TCMDC-131808] |  |  |  |  |  |  |  |  |  |  |  |  | IC50 [1, 10]: 3440 nM; HepG2 cytoxicity [2, 11]: >25 µM
CCC1=C(C[C@H]2NCCc3cc(OC)c(OC)cc32)C[C@H]2c3cc(OC)c(OC)cc3CCN2C1.Cl [TCMDC-131825] | 127 | 90.26 | 99.18 | 370 | 367 |  |  |  |  |  |  |  | IC50 [1]: 300 nM; HepG2 cytoxicity (Pf GCT ATP screen) ([2]; HepG2): >25 µM
COc1ccc(-c2cc(-c3ccc(S(C)(=O)=O)cc3)cnc2N)cn1 [TCMDC-133351] |  |  |  |  |  |  |  |  |  |  |  |  | IC50 [1, 12]: 1180 nM
Cc1cc(Nc2ncc(C#N)c(Nc3ccccc3C(N)=O)n2)ccc1N1CCN(C)CC1.Cl [TCMDC-134115] | 7 | 100.09 | 101.70 | 21.4 | 21 | 0.40 | 3.98 | 2.19 | 3980 | 0 (0: NO) | 1 (1: YES) | 1670 | 
Nc1ncc(-c2ccc3nccc(-c4ccncc4)c3c2)cc1S(=O)(=O)N1CCOCC1 [TCMDC-134180] |  |  |  |  |  |  |  |  |  |  |  |  | IC50 [1, 12]: 6900 nM; HepG2 cytoxicity [2, 14]: >25 µM; Unified cytotox [5, 15]: 25.00 µM
COc1ccc2nc(-c3cccc(C)n3)nc(Nc3ccncc3)c2c1 [TCMDC-134670] |  |  |  |  |  |  |  |  |  |  |  |  | IC50 [1, 12]: 2510 nM; HepG2 cytoxicity [2, 14]: >25 µM; Unified cytotox [5, 15]: 25.00 µM
Cc1cccc(Nc2nc(N[C@@H]3CCCNC3)nc3cc[nH]c(=O)c23)c1.O=C(O)C(F)(F)F [TCMDC-134835] | 255 | 88.28 | 77.31 | 890 | 889 | 3.25 | 4.57 | 3.91 | 4570 | 0 (0: NO) | 0 (0: NO) | 1850 | 
Cc1cccc(-c2nc(Nc3ccncc3)c3cc(N(C)C)ccc3n2)n1 [TCMDC-135308] |  |  |  |  |  |  |  |  |  |  |  |  | IC50 [1, 12]: 2660 nM; HepG2 cytoxicity [2, 14]: >25 µM; Unified cytotox [5, 15]: 25.00 µM
Nc1nc(N)c2c(ccc3c2ccn3Cc2cccc(F)c2)n1 [TCMDC-137810] | < 0.2 | 49.99 | 58.69 | 360 | 359 | 0.06 | 0.17 | 0.11 | 170 | 0 (0: NO) | 0 (0: NO) | 1420 | 
N#Cc1ccc(Cn2ccc3c4c(N)nc(N)nc4ccc32)cc1 [TCMDC-137820] | 22 | 57.43 | 49.47 | 1540 | 1540 | <0.0017 | 0.0017 | 0.0017 | 1.7 | 0 (0: NO) | 0 (0: NO) | 1060 | 
Cc1ccc(S(=O)(=O)N(CCCNCc2cccc(O)c2)c2ccccc2)cc1 [TCMDC-138022] | 124 | 53.17 | 87.34 | 1480 | 1480 | 44.67 | 34.67 | 39.67 | 34700 | 1 (1: YES) | 1 (1: YES) | 1140 | 
CC(C)(C)CNCC(C)(C)c1nc(-c2ccc(Cl)c(O)c2)c(-c2ccncc2)[nH]1.Cl [TCMDC-140549] | 817 | 58.06 | 49.80 | 1350 | 1350 | 11.63 | 12.02 | 11.83 | 12000 | 1 (1: YES) | 0 (0: NO) | 1010 | 
CC(C)(CN)c1nc(-c2ccc(Br)c(O)c2)c(-c2ccncc2)[nH]1.Cl [TCMDC-140680] | 1550 | 97.33 | 90.28 | 1930 | 1930 | 45.82 | 47.32 | 46.57 | 47300 | 1 (1: YES) | 1 (1: YES) | 840 | 
CC(C)(CNC(=O)[C@H]1CCCCN1)c1nc(-c2ccc(Cl)c(O)c2)c(-c2ccncc2)[nH]1.Cl [TCMDC-141070] | 818 | 24.32 | 51.52 |  | 2570 | 28.96 | 61.66 | 45.31 | 61700 | 1 (1: YES) | 1 (1: YES) | 530 | 
Cl.NCC1(c2nc(-c3ccc(Cl)c(O)c3)c(-c3ccncc3)[nH]2)CCCCC1 [TCMDC-141154] | 1480 | 57.75 | 53.53 | 1010 | 1000 | 11.90 | 46.77 | 29.34 | 46800 | 1 (1: YES) | 1 (1: YES) | 210 | 
CC(C)(CN)c1cc(-c2ccc(Cl)c(O)c2)c(-c2ccncc2)o1.Cl [TCMDC-141334] | 1620 | 59.21 | 49.94 | 1390 | 1390 | 9.98 | 20.65 | 15.32 | 20600 | 1 (1: YES) | 1 (1: YES) | 420 | 
O=C(Nc1ccc(Cl)cc1)c1cc(Cl)cc2nc(C(F)(F)F)[nH]c12 [TCMDC-141586] | 1100 | 65.74 | 42.68 | 4370 | 4360 | 2.82 | 2.04 | 2.43 | 2040 | 0 (0: NO) | 0 (0: NO) | 1700 | 
Cc1cc(F)ccc1-c1nc(NCCCNCCc2ccccc2)nc2c1ccc(=O)n2-c1c(F)cccc1F.O=C(O)C(F)(F)F [TCMDC-141804] | 21 | 63.85 | 85.47 | 720 | 725 | 12.59 | 11.48 | 12.04 | 11500 | 0 (0: NO) | 1 (1: YES) | 3610 | 
